According to US9949960B2, “Pharmaceutical composition for preventing or treating muscle weakness-related diseases, containing butylpyridinium or derivative thereof” (KOREA RESEARCH INSTITUTE OF BIOSCIENCE AND BIOTECHNOLOGY, priority 2014, dated 2018):

Experiments:
C2C12 myoblast cell line [1] = assay: Myotube formation of C2C12 cells observed under phase contrast microscopy; type: cell-based, mouse; conditions: 0.2 μM, 3 days differentiation, compared to DMSO control; FIG. 1
Description: C2C12 is a cell line of myoblasts obtained from a C3H strain live mouse, and it is widely used in the differentiation studies of myoblasts.
The above-described C2C12 cells were cultured in each of general media for cell growth and media for differentiation. In the normal cell growth media (GM), DMEM supplemented with 10% fetal bovine serum was used, and in the differentiation media (DM), DMEM containing 2% horse blood serum was used.
(§1) The DMSO, cetylpyridinium chloride, butylpyridinium chloride, and dodecylpyridinium chloride used in the experiment were all purchased from Sigma-Aldrich.

C2C12 myoblast cell line [2] = assay: Immunocytochemistry of MYH3 expression in differentiating C2C12 cells; type: cell-based, mouse; conditions: 0.2 μM, third day of differentiation; FIG. 2
Description: as §1
C2C12 cells on a cover glass coated with 0.1% gelatin were differentiated for 3 days. After washing the cells with 1×PBS, fixing with 3.7% paraformaldehyde at room temperature for 15 minutes, and washing 3 times with 1×PBS, a permeabilization buffer was added, and the cells were reacted at room temperature for 15 minutes. After washing the cells three times with 1×PBS again, the cells were reacted for 30 minutes with PBST (blocking buffer, PBS containing 0.5% Tween 20) containing 1% BSA to deter any unspecific binding of antibodies. The primary antibody against MYH3 (SC-20641, Santa Cruz Biotechnology) was added to the blocking buffer by diluting at a ratio of 1:500 and was reacted at room temperature for 1 hour. After washing the cells three times with 1×PBS, the secondary antibody (Goat anti-Rabbit IgG-HRP), which was diluted in the blocking buffer at a ratio of 1:5000, was added and reacted at room temperature for 1 hour, and the cells were washed three times with 1×PBS. The cover glass was placed on a slide glass, photographs were taken with a fluorescence microscope, and the results were analyzed.

C2C12 myoblast cell line [3] = assay: Western blot of MYH3 protein in differentiating C2C12 cells; type: cell-based, mouse; conditions: 0.2 μM every day, third day of differentiation, vs DMSO control; FIG. 3
Description: The cells were harvested on the third day of differentiation and centrifuged at 1200 rpm for 3 minutes. After adding 100 μL of a lysis buffer to the cells, the cells were sonicated and centrifuged at 3000 rpm for 10 minutes to obtain a water-soluble protein, and after adding a 4× sample buffer, the cells were reacted in boiling water for 5 minutes.
10 μg of the protein was loaded on a 12% SDS-PAGE gel and developed, and then was transferred onto a nitrocellulose membrane. The nitrocellulose membrane was blocked in 5% skim milk for 1 hour at room temperature and washed 5 times with TTBS (0.03% Tween 20, Tris 2.42 g, NaCl 9 g, pH 7.4, and 1 L) for 5 minutes each. The primary antibody was diluted in TTBS containing 5% skim milk at a ratio of 1:500 and was added to the nitrocellulose membrane, and after reacting at room temperature for 2 hours, the nitrocellulose membrane was again washed 5 times with TTBS for 5 minutes each. The secondary antibody was diluted at a ratio of 1:5000 again in TTBS containing 5% skim milk and added, was reacted at room temperature for 2 hours, was washed with TTBS 5 times for 5 minutes each, and ECL (Enhanced Chemiluminescent solution, Pierce) was added. Thereafter, the membrane was exposed to X-ray film, and the amount of the protein was measured.

[4] = test system: C57BL/6 male mice, muscle immobilization model; assay: Grip strength test after tibialis anterior muscle immobilization; type: in vivo, mouse; conditions: compared to control group
Description: (§2) As experimental animals, 20 of C57BL/6 male mice aged 6 weeks were used. The experimental animals were assigned to two groups: a control group, to which 10 mice having similar weights were assigned without administration, and an experimental group, to which 10 mice having similar weights were assigned with butylpyridinium chloride administration.
(§3) It was also administered continuously during the muscle immobilization periods described below.
(§4) In this experiment, as a method for inducing muscle regeneration in mice, the tibialis anterior muscle immobilization protocol was used. In this method, the thighs and shins of one leg of a mouse were fixed using a medical staple so that legs were immobilized, and after leaving the immobilized mouse alone for 3 days, the fixed leg was released. The principle used in this method is that when a leg is placed in a cast and the muscle of the leg is immobilized (i.e., not frequently used), the muscle is lost. […]
Grip strength was measured using a grip strength measuring instrument made by the company BIOSEB. The mouse was placed on a wire mesh attached to the instrument panel that can monitor the strength of a force, and the force of holding the wire mesh by the mouse while the tail was gripped downward was measured. […]

[5] = test system: C57BL/6 male mice, muscle immobilization model; assay: Rota-rod test after tibialis anterior muscle immobilization; type: in vivo, mouse; conditions: compared to control group
Description: as §2, §3
as §4, with “lost. It is a method for inducing muscle regeneration, in which, after the muscle loss due to immobilizing the shin muscle, the muscle is regenerated by releasing the immobilized muscle so that the muscle may move again.” for “lost.”

[6] = test system: C57BL/6 male mice, muscle immobilization model; assay: Treadmill test after tibialis anterior muscle immobilization; type: in vivo, mouse; conditions: compared to control group
Description: as §2, §3
as §4, with “lost. It is a method for inducing muscle regeneration, in which, after the muscle loss due to immobilizing the shin muscle, the muscle is regenerated by releasing the immobilized muscle so that the muscle may move again.” for “lost.”

[7] = test system: mouse immobilization model; assay: Skeletal muscle mass (muscle weight divided by body weight) in mouse immobilization model; type: in vivo; conditions: oral, concentration-dependent, 7 days after inducing regeneration; FIG. 11
Excerpt: Afterwards, an increase in the skeletal muscle mass due to the drug was confirmed by dividing the weight of the separated muscle by the body weight of the mouse (FIG. 11).

[8] = test system: mouse immobilization model; assay: Motor ability by rota-rod and treadmill tests after concentration-dependent oral administration; conditions: FIG. 10
Description: The exercise was applied using a rota-rod device consisting of 6 partitions (with a diameter of 7 cm, at an interval of 15 cm) and a rotatable cylindrical bar (with a height of 60 cm).
For the treadmill used in this test, a self-manufactured device was used. After each mouse was placed in an isolated lane and made to run, the time from the starting point to a point when the mouse was exhausted (i.e., judged to have no will to run) was recorded. […] In this experiment, repeated experiments on the same mouse could not be performed. The mouse was placed on the device and was made to run at a speed of 8 rpm, the speed was accelerated by 2 rpm every 10 minutes up to a speed of 18 rpm, and starting with no inclination, the inclination was increased by 5 degrees every 30 minutes.

[9] = test system: mouse immobilization model; assay: Muscle fiber cross-sectional area (Laminin staining of TA muscle) in mouse immobilization model; conditions: 1.7 mg/kg (mouse) oral, compared to control group; FIG. 12
Description: The separated muscle was cut to a thickness of 5 μM and stained by immunofluorescence using a Laminin antibody. […] By using the Laminin antibody, sections of the skeletal muscle fibers formed in the basement membrane were stained, and the cross-sectional area of the muscle fibers was measured (FIG. 12).

SMILES	formation of myotubes (differentiation promoting effect) (C2C12 myoblast cell line [1])	expression of MYH3 (immunocytochemistry) (C2C12 myoblast cell line [2])	amount of MYH3 protein (Western blot) (C2C12 myoblast cell line [3])	also measured
CCCC[n+]1ccccc1 [butylpyridinium chloride]	more myotubes were formed	very high	significantly increased	range of decrease in grip strength after muscle immobilization ([4]; 15 mg/kg oral, 3 days immobilization, tested 7 days after release, FIG. 4): reduced; motor ability to maintain the sense of balance (rota-rod) ([5]; 15 mg/kg oral, after muscle immobilization, FIG. 5): improved; endurance (treadmill) ([6]; 15 mg/kg oral, after muscle immobilization, FIG. 6): improved
CCCCCCCCCCCCCCCC[n+]1ccccc1 [cetylpyridinium bromide]			increased	
CCCCCCCCCCCCCCCC[n+]1ccccc1 [cetylpyridinium chloride]	more myotubes were formed	very high	significantly increased	range of decrease in grip strength after muscle immobilization ([4]; 50 mg/kg oral for 2 weeks, FIG. 7): reduced; motor ability to maintain the sense of balance (rota-rod) ([5]; 50 mg/kg oral for 2 weeks, FIG. 8): improved; endurance (treadmill) ([6]; 50 mg/kg oral for 2 weeks, FIG. 9): improved; skeletal muscle mass of the EDL muscle [7]: increased; skeletal muscle mass of the gastrocnemius muscle [7]: increased; motor ability (rota-rod and treadmill tests) [8]: improved; cross-sectional area of the muscle (TA) [9]: increased
CCCCCCCCCCCC[n+]1ccccc1 [dodecylpyridinium chloride]	more myotubes were formed	very high	significantly increased	
CC[n+]1ccccc1.[Cl-] [ethylpyridinium chloride]			did not increase	
